Source: PMC4681449 (Molecular microbiology, 2015)

Target: CjArsP (Campylobacter jejuni, UniProt B5LWZ8)
Assay type: biochemical

CjArsP, sequence (B5LWZ8 1-315): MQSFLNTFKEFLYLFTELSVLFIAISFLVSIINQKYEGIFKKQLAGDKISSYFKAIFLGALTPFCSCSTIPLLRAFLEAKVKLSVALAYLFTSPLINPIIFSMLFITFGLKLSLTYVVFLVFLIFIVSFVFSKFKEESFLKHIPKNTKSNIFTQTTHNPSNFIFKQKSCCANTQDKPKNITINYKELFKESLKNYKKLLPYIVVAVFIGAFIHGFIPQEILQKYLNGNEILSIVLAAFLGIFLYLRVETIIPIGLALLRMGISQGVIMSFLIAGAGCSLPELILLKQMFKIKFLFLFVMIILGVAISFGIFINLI

## C[As](O)O [MAs(III), methylarsenite]
  uptake into everted membrane vesicles, As by ICP-MS: Everted membrane vesicles from cells expressing CjarsP accumulated MAs(III) when NADH was supplied
